Data published in patent US20210379146A1, “METHOD TO RESTORE OR IMPROVE COGNITIVE FUNCTIONS” (INSERM (INSTITUT NATIONAL DE LA SANTÉ ET DE LA RECHERCHE …, priority 2018, published 2021).

Assays:
[1] = test system: C57BL/6J male mice; assay: Novel object recognition (NOR); assay type: in vivo, mouse; details: for memory performance in testing phase of NOR: 3 month-old WT mice, single acute hippocampal stereotactic injection 12 hours before training phase
[2] = test system: C57BL/6J male mice; assay: Contextual fear conditioning (CFC); assay type: in vivo, mouse; details: for memory performance in testing phase of CFC: 3 month-old WT mice, single acute hippocampal stereotactic injection 12 hours before training phase
[3] = test system: hippocampal autophagy (LC3-II); details: 16 month-old mice, 12 hours after hippocampal stereotactic injection, 1 μg/hemisphere, compared with 3 month-old mice
[4] = test system: C57BL/6J male mice; details: 16 month-old mice, local hippocampal stereotactic injection 1 μg/hemisphere, versus 3 month-old mice
[5] = 16 month-old mice, 14 days of daily intraperitoneal injections, 450 μg
[6] = 16 month-old mice, local hippocampal stereotactic injection 1 μg/hemisphere, versus 3 month-old mice

Compound	memory performance in testing phase of NOR [1]	memory performance in testing phase of CFC [2]	LC3-II levels (Western blot) [3]	age-related memory decline, NOR [1, 5]	age-related memory deficits, NOR [1, 6]	age-related memory deficits, OLM [4]	age-related memory decline, CFC [2, 5]	age-related memory deficits, CFC [2, 6]
CCN(CC)CCCC(C)Nc1ccnc2cc(Cl)ccc12 (centres unmarked) [chloroquine, Chloroquine, reference compound]	significant decrease in memory performance	significant decrease in memory performance						
CC(=O)N[C@@H](CC(C)C)C(=O)N[C@@H](CC(C)C)C(=O)N[C@H](C=O)CCCNC(=N)N [leupeptin, Leupeptin, reference compound]	significant decrease in memory performance	significant decrease in memory performance						
Fc1ccc(CNc2ncnc3ccc(F)cc23)cc1 [Spautin-1, reference compound]	significant decrease in memory performance	significant decrease in memory performance						
YGRKKRRQRRRGGTNVFNATFEIWHDGEFGT [TAT-Beclin 1]	enhanced learning/memory capacities	enhanced learning/memory capacities	restored LC3-II levels in old (16 months) to the level of young (3 months) mice	counteract normal age-related memory decline	rescue age-related memory deficits	rescue age-related memory deficits	counteract normal age-related memory decline	rescue age-related memory deficits
